One assay concerns Nf1−/− astrocytes. The assay can be described thus: Intracellular cAMP by ELISA, Nf1−/− astrocytes. It counts as cell-based, mouse. The method, then:
cAMP measurements. cAMP was measured by ELISA (Cayman Chemical Company, Ann Arbor, Mich. or Assay Designs, Ann Arbor, Mich.). Briefly, astrocyte cultures were lysed in 0.1 N HCl. After the removal of cellular debris, soluble cellular extract was dried down and resuspended in EIA buffer. Experimental samples and cAMP standard curve were acetylated to increase the sensitivity of the assay and incubated with cAMP ACHe tracer and cAMP EIA anti-serum overnight at 4° C. according to the manufacturer's instructions. After extensive washing, bound antibody was measured by spectrophotometric analysis. Concentrations of cAMP were derived from comparison with standard curve according to manufacturer's instructions.
We evaluated the time dependent changes in intracellular cAMP in Nf1+/+ and Nf1−/− astrocytes after exposure to 0.1 μg/ml CXCL12. […] However, in Nf1+/+ astrocytes, intracellular levels of cAMP rapidly recovered to baseline and oscillated between baseline and 40% of baseline over the 45-minute experimental period (FIG. 10B).
We hypothesized that if cooperative signaling between Nf1 loss and CXCR4 activation promotes tumor formation through the suppression of cAMP, then agents that alter intracellular cAMP should modulate CXCL12 responses. We treated astrocytes with the adenylyl cyclase (AC) activator forskolin in the presence and absence of CXCL12. […] In these experiments, forskolin elevated intracellular cAMP levels in both Nf1+/+ and Nf1−/− astrocytes with peak values of 17.8+/−0.4 and 19.4+/−4.5 pmol/mg of protein, respectively, after 24 hours of treatment. The effect of forskolin was not abrogated by co-treatment with CXCL12. Under these conditions, cAMP levels were 17.9+/−2.5 and 10.4+/−5.8 pmol/mg of total protein in Nf1+/+ and Nf1−/− astrocytes, respectively. […] The effect of forskolin on CXCL12-mediated Nf1−/− apoptosis was evidenced by changes in the percentage of Nf1−/− astrocytes in the sub-G0 fraction of the cell cycle (FIG. 11B). Thus while astrocyte growth is dependent upon MEK and PI3 kinase activity, CXCL12-induced Nf1−/− astrocyte growth requires the suppression of intracellular cAMP levels.
On the technique in general: In an ELISA, binding on a coated surface is turned into a signal by an enzyme label.

The subject of the next assay is U87 glioblastoma cells. The assay can be described thus: Viable cell number by trypan blue exclusion, U87 cells. It counts as cell-based, human. As to conditions: CXCL12 1 μg/ml. The method, then: Brain tumor cell cultures. Cells were cultured in αMEM (Invitrogen, Carlsbad, Calif.) supplemented with 10% FCS (Biomedia, Foster City, Calif.) in the presence of penicillin streptomycin at 37° C. with 5% CO2.
(§1) Growth factor and drug treatment. Following serum-starvation for 24 hours, astrocytes, granule cells, U87 cells and Daoy cells, were treated with 1 μg/ml CXCL12 (PeproTech), […] AMD3465 (kind gift from Simon Fricker, AnorMED, Langley, BC, Canada) (200 μM Rolipram (Sigma), or 10 μM Forskolin (Sigma) as indicated.

Another assay deals with T1, CXCR4 (Mus musculus, UniProt P70658).
T1 construct: endogenous in cells; host or cells: primary mouse astrocytes (Nf1 flox/flox, infected with Ad-LacZ or Ad-Cre)
Put plainly: CXCL12-induced CXCR4 phosphorylation (pCXCR4 western blot), wild-type (Nf1+/+) astrocytes. The assay is classed as cell-based. To be noted: CXCL12 0.1 μg/ml, at 5 minutes. The method, then:
Western Blot Analysis. Whole-cell extracts were obtained by lysing cells with lysis buffer (20 mM Tris pH 7.4, 137 mM NaCl, 10% Glycerol and 1% Triton-X-100) supplemented with phosphatase inhibitor cocktail set II (Calbiochem, La Jolla, Calif.), PMSF (1 mM), leupeptin, (0.005 mg/ml) and aprotinin (0.005 mg/ml). The proteins were resolved with 10% Bis-Tris gels (Invitrogen) and transferred onto the nitrocellulose membrane Hybond ECL (Amersham, Piscataway, N.J.) according to standard protocols. Membranes were incubated with polyclonal antibodies CXCR4 (1:500), pErk½ (1:1200), pan Erk½ (1:150), pAkt (1:500), pan Akt (1:1000), pGRK2 (1:250), and pCXCR4 (1:200) overnight at 4° C. This was followed by incubation with horseradish peroxidase-conjugated secondary antibody (1:15,000; Bio-Rad). Peroxide activity was detected using the enhanced chemiluminescence Supersignal West Dura system (Pierce, Rockford, Ill.) Mouse anti-actin antibody was used as a loading control. Quantitation of western blots was performed by densitometry using Image J software from the NIH.
Among the primary mechanisms for controlling GPCR effects on cAMP production is receptor desensitization (140). This process is initiated when ligand occupied GPCR (e.g., CXCR4) is phosphorylated by G protein receptor kinase (GRK). […]

The next assay deals with astrocytes. The assay can be described thus: Cell number by trypan blue exclusion, primary astrocytes. The assay is classed as cell-based, mouse. As to conditions: CXCL12 1 μg/ml, 24 hours. The method, then: Primary astrocyte cultures. Primary astrocytes were cultured from 1 to 3-day-old BALB/C mice as described (57). The cortices were triturated into single cells in minimal essential medium (Invitrogen) containing 10% FCS, and then plated onto 75 cm^2 T-flasks (0.5 hemisphere/flask) for 10-14 days. Astrocytes were prepared by vigorous shaking of T-flasks overnight, removal of non-adherent cells, and isolation of the remaining adherent cells, with 0.1% trypsin.
as §1

Assay [1] concerns PDE4A-expressing Daoy cells. Put plainly: Viable cell number, PDE4A-expressing Daoy cells. It counts as cell-based, human. To be noted: CXCL12 1 μg/ml, AMD 3465 2.5 μg/ml, Rolipram 200 μM. The method, then:
PDE4A expression. U87 and Daoy cells (15,000 cells) were transiently transfected for 48 h with a plasmid encoding a transgene for the tet-off transactivator (tTA) alone (kind gift from Dr. Louis Muglia, Washington University School of Medicine, St. Louis, Mo.), a plasmid containing a transgene for tet-off regulated expression of phosphodiesterase 4A (PDE4A) alone (kind gift from Dr. James Cherry, Boston University, Boston, Mass.), or a combination of both plasmids, using lipofectamine (Invitrogen) according to the manufacturer's instructions. Plasmid DNA (2 μg) was mixed with lipofectamine (5 μl) per 35 mm^2 dish. Transfection proceeded for 9 hours prior to exchanging transfection media for αMEM supplemented with 10% FCS.

We go through one substance from patent US7892767B2, “Phosphospecific chemokine receptor antibodies” (Washington University in St. Louis, priority 2005, dated 2011).

T1 sequence (P70658 whole entry): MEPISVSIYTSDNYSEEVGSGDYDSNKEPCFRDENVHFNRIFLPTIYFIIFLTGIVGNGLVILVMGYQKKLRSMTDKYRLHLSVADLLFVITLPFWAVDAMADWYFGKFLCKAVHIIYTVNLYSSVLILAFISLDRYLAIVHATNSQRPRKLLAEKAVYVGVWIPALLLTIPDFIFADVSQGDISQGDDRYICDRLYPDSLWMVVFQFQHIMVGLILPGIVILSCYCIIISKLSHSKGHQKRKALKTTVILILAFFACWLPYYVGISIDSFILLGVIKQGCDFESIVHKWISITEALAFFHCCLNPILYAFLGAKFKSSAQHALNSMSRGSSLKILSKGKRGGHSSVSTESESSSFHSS

Take “CXCL12: chemokine ligand of CXCR4 (Peprotech)”: the “integrated area under the cAMP curve” value with Nf1−/− astrocytes (0.1 μg/ml CXCL12, 45-minute period) was found to be 1.96. In addition, the “intracellular cAMP in Nf1−/− astrocytes relative to Nf1+/+ astrocytes” value with Nf1−/− astrocytes (0.1 μg/ml CXCL12, from areas under the curves) is recorded as “approximately 73%”. For the same substance, the “increase in cell number” value is listed as “greater than 2 fold” with U87 glioblastoma cells and “greater than 200%” with U87 glioblastoma cells (serum-free). In the assay with CXCR4, the “increase in pCXCR4” value is on record as 2.6+/−0.06 fold. For the same substance, the “effect on cell number” value in the assay on astrocytes is “tended to decrease”; in assay [1] it was “no longer any benefit”.
